# Test results as given in US6613903B2, “Modulators of protein tyrosine phosphatases (PTPases)” (Novo Nordisk A/S, priority 2000, dated 2003).
# Molecular target: T1, truncated form of PTP1 B (corresponding to the first 321 amino acids) (Homo sapiens, UniProt P18031)
# T1 construct: truncated form of PTP1 B (corresponding to the first 321 amino acids); made in house; host or cells: E. coli
# T1 sequence (P18031 1-321): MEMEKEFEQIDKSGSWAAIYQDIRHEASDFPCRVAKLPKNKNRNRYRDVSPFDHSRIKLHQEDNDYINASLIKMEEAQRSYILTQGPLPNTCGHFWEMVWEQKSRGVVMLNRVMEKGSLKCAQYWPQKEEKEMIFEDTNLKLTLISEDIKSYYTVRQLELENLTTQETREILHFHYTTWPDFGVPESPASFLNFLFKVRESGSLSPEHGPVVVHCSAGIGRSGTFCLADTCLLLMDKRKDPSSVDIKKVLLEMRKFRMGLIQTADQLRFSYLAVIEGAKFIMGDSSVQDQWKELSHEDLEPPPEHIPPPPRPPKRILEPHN
# Experiment: Inhibition of PTP1B, p-nitrophenyl phosphate as substrate, enzyme kinetics
# Type: biochemical
# Settings: truncated PTP1B expressed in E. coli; substrate p-nitrophenyl phosphate 0.16 to 10 mM; sodium acetate pH 5.5; 25° C. for 60 minutes; absorbance at 405 nm
# Description: The compounds are evaluated for biological activity with a truncated form of PTP1 B (corresponding to the first 321 amino acids), which was expressed in E. coli and purified to apparent homogeneity using published procedures well-known to those skilled in the art. The enzyme reactions are carried out using standard conditions essentially as described by Burke et al. (Biochemistry 35; 15989-15996 (1996)). The assay conditions are as follows. Appropriate concentrations of the compounds of the invention are added to the reaction mixtures containing different concentrations of the substrate, p-nitrophenyl phosphate (range: 0.16 to 10 mM—final assay concentration). The buffer used was 100 mM sodium acetate pH 5.5, 50 mM sodium chloride, 0.1% (w/v) bovine serum albumin and 5 mM dithiothreitol (total volume […]). The reaction was started by addition of the enzyme and carried out in microtiter plates at 25° C. for 60 minutes. The reactions are stopped by addition of NaOH. The enzyme activity was determined by measurement of the absorbance at 405 nm with appropriate corrections for absorbance at 405 nm of the compounds and p-nitrophenyl phosphate. The data are analyzed using nonlinear regression fit to classical Michaelis Menten enzyme kinetic models. Inhibition is expressed as Ki values in μM.
row,Ki [nM],Compound
1,120,"O=C(O)C(=O)Nc1sc2c(c1C(=O)O)CCNC2CNC(=O)c1cccc2ccccc12 (centres unmarked) [Example 12, 7-(((Naphthalene-1-carbonyl)amino)methyl)-2-(oxalyl-amino)-4,5,6,7-tetrahydro-thieno[2,3-c]pyridine-3-carboxylic acid]"
2,640,"O=C(O)C(=O)Nc1sc2c(c1C(=O)O)CCN[C@H]2CNC(=O)c1ccc2nc[nH]c2c1 [Example 24, 7-(S)-(((3H-Benzoimidazole-5-carbonyl)amino)methyl)-2-(oxalyl-amino)-4,5,6,7-tetrahydro-thieno[2,3-c]pyridine-3-carboxylic acid]"
3,62,"O=C(CCc1ccc(-c2ccccc2)cc1)NCC1NCCc2c1sc(NC(=O)C(=O)O)c2C(=O)O (centres unmarked) [Example 9, 7-((3-Biphenyl-4-yl-propionylamino)methyl)-2-(oxalyl-amino)-4,5,6,7-tetrahydro-thieno[2,3-c]-pyridine-3-carboxylic acid]"
4,31,"O=C(NC[C@@H]1NCCc2c1sc(NC(=O)C(=O)O)c2C(=O)O)Nc1ccc(Oc2ccccc2)cc1 [Example 29, 2-(Oxalyl-amino)-7-(S)-(3-(4-phenoxy-phenyl)ureidomethyl)-4,5,6,7-tetrahydro-thieno[2,3-c]pyridine-3-carboxylic acid]"
5,91,"CC(=O)Nc1ccc(S(=O)(=O)NC[C@@H]2NCCc3c2sc(NC(=O)C(=O)O)c3C(=O)O)cc1 [Example 22, 7-(S)-((4-Acetylamino-benzenesulfonylamino)methyl)-2-(oxalyl-amino)-4,5,6,7-tetrahydro-thieno[2,3-c]pyridine-3-carboxylic acid]"
6,58,"O=C(O)C(=O)Nc1sc2c(c1C(=O)O)CCN[C@H]2CNCc1ccc(Oc2ccccc2)cc1 [Example 28, 2-(Oxalyl-amino)-7-(S)-((4-phenoxy-benzylamino)methyl)-4,5,6,7-tetrahydro-thieno[2,3-c]pyridine-3-carboxylic acid]"
7,330,"O=C(O)C(=O)Nc1sc2c(c1C(=O)O)CCNC2CNC(=O)c1ccc(NC(=O)c2ccccc2)cc1 (centres unmarked) [Example 6, 7-((4-Benzoylamino-benzoylamino)methyl)-2-(oxalyl-amino)-4,5,6,7-tetrahydro-thieno[2,3-c]pyridine-3-carboxylic acid]"
8,1100,"CC(=O)NCC1NCCc2c1sc(NC(=O)C(=O)O)c2C(=O)O (centres unmarked) [Example 31, 7-(Acetylamino-methyl)-2-(oxalyl-amino)-4,5,6,7-tetrahydro-thieno[2,3-c]pyridine-3-carboxylic acid]"
9,3200,"O=C(O)C(=O)Nc1sc2c(c1C(=O)O)CCN[C@H]2CNC(=O)c1cc2cc(O)ccc2[nH]1 [Example 25, 7-(S)-(((5-Hydroxy-1H-indole-2-carbonyl)amino)methyl)-2-(oxalyl-amino)-4,5,6,7-tetrahydro-thieno[2,3-c]pyridine-3-carboxylic acid]"
10,63,"CCOC(=O)C(=O)Nc1sc2c(c1C(=O)O)CCNC2CNC(=O)c1cc2cc(O)ccc2[nH]1 (centres unmarked) [Example 38, 2-(Ethoxyoxalyl-amino)-7-(((5-hydroxy-1H-indole-2-carbonyl)amino)methyl)-4,5,6,7-tetrahydro-thieno[2,3-c]pyridine-3-carboxylic acid]"
11,900,"CCOC(=O)c1c(NC(=O)C(=O)O)sc2c1CCNC2CNC(=O)c1cc2cc(O)ccc2[nH]1 (centres unmarked) [Example 41, 7-(((5-Hydroxy-1H-indole-2-carbonyl)amino)methyl)-2-(oxalyl-amino)-4,7-dihydro-5H-thieno[2,3-c]pyridine-3-carboxylic acid ethyl ester]"
12,31,"O=C(O)C(=O)Nc1sc2c(c1C(=O)O)CCN[C@H]2CNC(=O)c1cc2ccccc2[nH]1 [Example 37, 7-(S)-(((1H-Indole-2-carbonyl)amino)methyl)-2-(oxalyl-amino)-4,5,6,7-tetrahydro-thieno[2,3-c]pyridine-3-carboxylic acid]"
13,1300,"CCOC(=O)c1c(NC(=O)C(=O)OCC(C)(C)C)sc2c1CCNC2CNC(=O)c1cc2cc(O)ccc2[nH]1 (centres unmarked) [Example 40, 2-((2,2-Dimethyl-propoxyoxalyl)amino)-7-(((5-hydroxy-1H-indole-2-carbonyl)-amino)methyl)-4,5,6,7-tetrahydro-thieno[2,3-c]pyridine-3-carboxylic acid ethyl ester]"
14,2100,"O=C(O)C(=O)Nc1sc2c(c1C(=O)O)CCN[C@@H]2CNC(=O)c1cn(Cc2ccccc2)c2ccccc12 [Example 27, 7-(R)-(((1-Benzyl-1H-indole-3-carbonyl)amino)methyl)-2-(oxalyl-amino)-4,5,6,7-tetrahydro-thieno[2,3-c]pyridine-3-carboxylic acid]"
15,2600,"O=C(O)C(=O)Nc1sc2c(c1C(=O)O)CCN[C@@H]2CNC(=O)c1cc2cc(O)ccc2[nH]1 [Example 26, 7-(R)-(((5-Hydroxy-1H-indole-2-carbonyl)amino)methyl)-2-(oxalyl-amino)-4,5,6,7-tetrahydro-thieno[2,3-c]pyridine-3-carboxylic acid]"
16,18,"O=C(O)C(=O)Nc1sc2c(c1C(=O)O)CCN[C@H]2CNC(=O)c1cc2cc(F)ccc2[nH]1 [Example 33, 7-(S)-(((5-Fluoro-1H-indole-2-carbonyl)amino)methyl)-2-(oxalyl-amino)-4,5,6,7-tetrahydro-thieno[2,3-c]pyridine-3-carboxylic acid]"
17,140,"O=C(O)C(=O)Nc1sc2c(c1C(=O)O)CCNC2CNC(=O)c1ccc(Cc2ccccc2)cc1 (centres unmarked) [Example 11, 7-((4-Benzyl-benzoylamino)methyl)-2-(oxalyl-amino)-4,5,6,7-tetrahydro-thieno[2,3-c]pyridine-3-carboxylic acid]"
18,78,"CC(C)(N)CCCC(=O)NCC1NCCc2c1sc(NC(=O)C(=O)O)c2C(=O)O (centres unmarked) [Example 32, 7-((5-Amino-5-methyl-hexanoylamino)methyl)-2-(oxalyl-amino)-4,5,6,7-tetrahydro-thieno[2,3-c]pyridine-3-carboxylic acid]"
19,42,O=C(O)C(=O)Nc1sc2c(c1C(=O)O)CCN[C@H]2CNC(=O)c1ccc(-c2cccc(-c3ccccc3)c2)cc1 [Example 36]
20,110,"CCOc1cccc2cc(C(=O)NC[C@@H]3NCCc4c3sc(NC(=O)C(=O)O)c4C(=O)O)oc12 [Example 20, 7-(S)-(((7-Ethoxy-benzofuran-2-carbonyl)amino)methyl)-2-(oxalyl-amino)-4,5,6,7-tetrahydro-thieno[2,3-c]pyridine-3-carboxylic acid]"
21,70,"O=C(O)C(=O)Nc1sc2c(c1C(=O)O)CCNC2CNC(=O)c1c(O)ccc2ccccc12 (centres unmarked) [Example 14, 7-(((2-Hydroxy-naphthalene-1-carbonyl)amino)methyl)-2-(oxalyl-amino)-4,5,6,7-tetrahydro-thieno[2,3-c]pyridine-3-carboxylic acid]"
22,120,"CCOC(=O)N1CCc2c(sc(NC(=O)C(=O)O)c2C(=O)O)C1CNC(=O)c1cc2cc(O)ccc2[nH]1 (centres unmarked) [Example 42, 7-(((5-Hydroxy-1H-indole-2-carbonyl)amino)methyl)-2-(oxalyl-amino)-4,7-dihydro-5H-thieno[2,3-c]pyridine-3,6-dicarboxylic acid 6-ethyl ester]"
23,490,"O=C(O)C(=O)Nc1sc2c(c1C(=O)O)CCNC2CNC(=O)c1ccccc1 (centres unmarked) [Example 1, 7-(Benzoylamino-methyl)-2-(oxalyl-amino)-4,5,6,7-tetrahydro-thieno[2,3-c]pyridine-3-carboxylic acid]"
24,70,"O=C(O)C(=O)Nc1sc2c(c1C(=O)O)CCNC2CNC(=O)c1cn(Cc2ccccc2)c2ccccc12 (centres unmarked) [Example 30, 7-(((1-Benzyl-1H-indole-3-carbonyl)amino)methyl)-2-(oxalyl-amino)-4,5,6,7-tetrahydro-thieno[2,3-c]pyridine-3-carboxylic acid]"
25,70,"O=C(CCc1ccc2ccccc2c1)NCC1NCCc2c1sc(NC(=O)C(=O)O)c2C(=O)O (centres unmarked) [Example 13, 7-((3-Naphthalen-2-yl-propionylamino)methyl)-2-(oxalyl-amino)-4,5,6,7-tetrahydro-thieno[2,3-c]pyridine-3-carboxylic acid]"

row,Compound,Ki [nM]
1,"CC(=O)OCOC(=O)Oc1ccc2[nH]c(C(=O)NC[C@H]3c4sc(NC(=O)C(=O)O)c(C(=O)O)c4CCN3C(=O)OCOC(C)=O)cc2c1 [Example 35, 7-(S)-(((5-Acetoxymethoxycarbonyloxy-1H-indole-2-carbonyl)amino)methyl)-2-(oxalyl-amino)-4,7-dihydro-5H-thieno[2,3-c]pyridine-3,6-dicarboxylic acid 6-acetoxymethyl ester]",32
